# Target: T1, mGlyT-1b (Mus musculus, UniProt P28571)
# T1 construct: host or cells: Flp-in-CHO
# T1 sequence (P28571 1-651 isoform P28571-2): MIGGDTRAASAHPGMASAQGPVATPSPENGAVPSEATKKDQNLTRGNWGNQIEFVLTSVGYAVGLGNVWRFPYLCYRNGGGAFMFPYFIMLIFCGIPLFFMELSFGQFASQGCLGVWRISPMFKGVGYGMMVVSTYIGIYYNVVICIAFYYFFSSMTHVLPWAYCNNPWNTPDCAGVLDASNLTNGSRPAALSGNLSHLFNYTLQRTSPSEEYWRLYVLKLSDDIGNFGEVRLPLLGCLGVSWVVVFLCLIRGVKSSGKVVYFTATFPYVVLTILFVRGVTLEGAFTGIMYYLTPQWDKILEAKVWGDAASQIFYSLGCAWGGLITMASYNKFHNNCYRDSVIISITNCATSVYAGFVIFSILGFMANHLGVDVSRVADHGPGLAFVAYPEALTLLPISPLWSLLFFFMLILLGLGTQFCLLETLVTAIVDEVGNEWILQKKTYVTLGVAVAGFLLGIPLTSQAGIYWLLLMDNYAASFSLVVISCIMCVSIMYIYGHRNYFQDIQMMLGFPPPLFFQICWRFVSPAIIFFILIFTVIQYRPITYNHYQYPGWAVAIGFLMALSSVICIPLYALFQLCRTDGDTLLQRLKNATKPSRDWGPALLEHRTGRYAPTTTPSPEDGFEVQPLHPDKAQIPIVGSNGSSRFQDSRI
# Experiment: Glycine Uptake Inhibition Assay (mGlyT-1b)
# Format: cell-based
# Conditions: IC50 data
row,SMILES,IC50
1,"O=C(NC1CCCC1N1CCCC1)c1c(Cl)cc(C(F)(F)F)cc1Cl (single isomer, unassigned; (+)) [Example 128, (+)-2,6-Dichloro-N-cis-(2-pyrrolidin-1-yl-cyclopentyl)-4-trifluoromethyl-benzamide]",69.1 nM
2,"O=C(N[C@H]1CCC[C@H]1N1CCCC1)c1c(C2CC2)cc(C(F)(F)F)cc1C(F)(F)F (relative stereo) [Example 130, 2-Cyclopropyl-N-((cis)-2-pyrrolidin-1-yl-cyclopentyl)-4,6-bis-trifluoromethyl-benzamide]",35.4 nM
3,"CCc1cccc(C2CC2)c1C(=O)N[C@@H]1CCC[C@@H]1N1CCCC1 (single isomer, unassigned) [Example 121, (+)-cis-2-Cyclopropyl-6-ethyl-N-(2-pyrrolidin-1-yl-cyclopentyl)-benzamide]",36.1 nM
4,"CSc1cc(C(F)(F)F)ccc1C(=O)N[C@@H]1CCC[C@@H]1N1CCCC1 (single isomer, unassigned) [Example 84, (+)-2-Methylsulfanyl-N-(2-pyrrolidin-1-yl-cyclopentyl)-4-trifluoromethyl-benzamide]",89 nM
5,"COc1cc(C(F)(F)F)cc(C2CC2)c1C(=O)N[C@H]1CCC[C@H]1N1CCCC1 (relative stereo) [Example 131, 2-Cyclopropyl-6-methoxy-N-((cis)-2-pyrrolidin-1-yl-cyclopentyl)-4 trifluoromethyl-benzamide]",19.9 nM
6,"COc1cc(C(F)(F)F)cc(OC(F)F)c1C(=O)N[C@H]1CCC[C@H]1N1CCCC1 (relative stereo) [Example 133, 2-Difluoromethoxy-6-methoxy-N-((cis)-2-pyrrolidin-1-yl-cyclopentyl)-4-trifluoromethyl-benzamide]",90.8 nM
7,"O=C(NC1CCCC1N1CCCC1)c1ccc(C(F)(F)F)cc1C1CC1 (single isomer, unassigned; (+)) [Example 97, (+)-2-Cyclopropyl-N-cis-(-2-pyrrolidin-1-yl-cyclopentyl)-4-trifluoromethyl-benzamide]",82.4 nM
8,"CSc1cc(C(F)(F)F)cc(C(F)(F)F)c1C(=O)N[C@@H]1CCC[C@@H]1N1CCCC1 (single isomer, unassigned) [Example 119, (−)-cis-2-Methylsulfanyl-N-(2-pyrrolidin-1-yl-cyclopentyl)-4,6-bis-trifluoromethyl-benzamide]",65.4 nM
9,"CCc1cccc(C)c1C(=O)N[C@H]1CCC[C@H]1N1CCCC1 (relative stereo) [Example 94, cis-2-Ethyl-6-methyl-N-(2-pyrrolidin-1-yl-cyclopentyl)-benzamide]",98.4 nM
10,"O=C(N[C@H]1CCC[C@H]1N1CCCC1)c1ccc(C(F)(F)F)cc1C1CC1 (racemic) [Example 91, 2-Cyclopropyl-cis-N-(2-pyrrolidin-1-yl-cyclopentyl)-4-trifluoromethyl-benzamide]",45.3 nM
11,"COc1cc(C(F)(F)F)cc(Br)c1C(=O)N[C@H]1CCC[C@H]1N1CCCC1 (racemic) [Example 101, 2-Bromo-6-methoxy-N-cis-(2-pyrrolidin-1-yl-cyclopentyl)-4-trifluoromethyl-benzamide]",94.8 nM
12,"CCc1cccc(C2CC2)c1C(=O)N[C@H]1CCC[C@H]1N1CCCC1 (racemic) [Example 98, cis-2-Cyclopropyl-6-ethyl-N-(2-pyrrolidin-1-yl-cyclopentyl)-benzamide]",80.1 nM
13,"CCc1cc(C(F)(F)F)cc(C(F)(F)F)c1C(=O)N[C@H]1CCC[C@H]1N1CCCC1 (relative stereo) [Example 137, 2-Ethyl-N-((cis)-2-pyrrolidin-1-yl-cyclopentyl)-4,6-bis-trifluoromethyl-benzamide]",46.2 nM
14,"O=C(N[C@H]1CCC[C@H]1N1CCCC1)c1c(Cl)cc(C(F)(F)F)cc1Cl (relative stereo) [Example 108, cis-2,6-Dichloro-N-(2-pyrrolidin-1-yl-cyclopentyl)-4-trifluoromethyl-benzamide]",88.2 nM
15,"CSc1cc(C(F)(F)F)ccc1C(=O)N[C@@H]1CCC[C@@H]1N1CCCC1 (single isomer, unassigned) [Example 85, (−)-2-Methylsulfanyl-N-(2-pyrrolidin-1-yl-cyclopentyl)-4-trifluoromethyl-benzamide]",60.4 nM
16,"O=C(N[C@H]1CCC[C@H]1N1CCCC1)c1ccc(C(F)(F)F)cc1C(F)(F)F (single isomer, unassigned) [Example 78, (−)-N-(2-Pyrrolidin-1-yl-cyclopentyl)-2,4-bis-trifluoromethyl-benzamide]",75.4 nM
17,"CCc1cc(C(F)(F)F)cc(C(F)(F)F)c1C(=O)NC1CCCC1N1CCCC1 (single isomer, unassigned) [Example 142]",68 nM
18,"COc1cc(C(F)(F)F)cc(SC)c1C(=O)N[C@@H]1CCC[C@@H]1N1CCCC1 (single isomer, unassigned) [Example 58, (−)-2-Methoxy-6-methylsulfanyl-N-(2-pyrrolidin-1-yl-cyclopentyl)-4-trifluoromethyl-benzamide]",27.6 nM
19,"O=C(NC1CCCC1N1CCCC1)c1ccc(C(F)(F)F)cc1C1CC1 (single isomer, unassigned) [Example 96, (+2-Cyclopropyl-N-cis-(-2-pyrrolidin-1-yl-cyclopentyl)-4-trifluoromethyl-benzamide]",42.8 nM
20,"O=C(NC1CCCC1N1CCCC1)c1c(C2CC2)cc(C(F)(F)F)cc1C(F)(F)F (single isomer, unassigned; (-)) [Example 138, (−)-2-Cyclopropyl-N-((1R,2, or 1S,2R)-2-pyrrolidin-1-yl-cyclopentyl)-4,6-bis-trifluoromethyl-benzamide]",67.9 nM
21,"CCc1cc(C(F)(F)F)ccc1C(=O)N[C@H]1CCC[C@H]1N1CCCC1 (relative stereo) [Example 80, cis-2-Ethyl-N-(2-pyrrolidin-1-yl-cyclopentyl)-4-trifluoromethyl-benzamide]",89.6 nM
22,"O=C(NC1CCCC1N1CCCC1)c1c(Cl)cc(C(F)(F)F)cc1Cl (single isomer, unassigned; (-)) [Example 129, (−)-2,6-Dichloro-N-cis-(2-pyrrolidin-1-yl-cyclopentyl)-4-trifluoromethyl-benzamide]",64.5 nM
23,"COc1cc(C(F)(F)F)cc(SC)c1C(=O)N[C@@H]1CCC[C@@H]1N1CCCC1 (single isomer, unassigned) [Example 59, (+)-2-Methoxy-6-methylsulfanyl-N-(2-pyrrolidin-1-yl-cyclopentyl)-4-trifluoromethyl-benzamide]",61.1 nM
24,"Cc1cc(C(F)(F)F)cc(C)c1C(=O)N[C@H]1CCC[C@H]1N1CCCC1 (relative stereo) [Example 132, 2,6-Dimethyl-N-((cis)-2-pyrrolidin-1-yl-cyclopentyl)-4-trifluoromethyl-benzamide]",36.5 nM

# Same assay, conditions: [3H]-glycine uptake, Flp-in-CHO cells transfected with mGlyT-1b cDNA, 20 min preincubation at 22° C.; read-out: IC50 data
row,SMILES,IC50
1,"CSc1cc(C(F)(F)F)cc(C(F)(F)F)c1C(=O)N[C@H]1CCC[C@H]1NC1CCCC1 (racemic) [Example 134, N-((cis)-2-Cyclopentylamino-cyclopentyl)-2-methylsulfanyl-4,6-bis-trifluoromethyl-benzamide]",95.7 nM

# Same assay, conditions: read-out: IC50 data
row,SMILES,IC50
1,"O=C(N[C@H]1CCC[C@H]1NC1CCCC1)c1ccc(C(F)(F)F)cc1C1CC1 (racemic) [Example 102, N-((1SR,2RS)-2-Cyclopentylamino-cyclopentyl)-2-cyclopropyl-4-trifluoromethyl-benzamide]",35.1 nM
2,"COc1cc(C(F)(F)F)cc(SC)c1C(=O)N[C@@H]1CCC[C@@H]1NC1CCC1 (racemic) [Example 61, N-((1RS,2SR)-2-Cyclobutylamino-cyclopentyl)-2-methoxy-6-methylsulfanyl-4-trifluoromethyl-benzamide]",65.9 nM
3,"COc1cc(C(F)(F)F)cc(SC)c1C(=O)N[C@@H]1CCC[C@@H]1NC1CCC1 (single isomer, unassigned) [Example 62, (−)-cis-N-(-2-Cyclobutylamino-cyclopentyl)-2-methoxy-6-methylsulfanyl-4-trifluoromethyl-benzamide]",31.6 nM
4,"COc1cc(C(F)(F)F)cc(SC)c1C(=O)N[C@H]1CCC[C@H]1NC1CCCC1 (single isomer, unassigned) [Example 68, (−)-N-(2-Cyclopentylamino-cyclopentyl)-2-methoxy-6-methylsulfanyl-4-trifluoromethyl-benzamide]",19.4 nM
5,"COc1cc(C(F)(F)F)cc(SC)c1C(=O)N[C@@H]1CCC[C@@H]1NC1CCCC1 (racemic) [Example 65, N-((1RS,2SR)-2-Cyclopentylamino-cyclopentyl)-2-methoxy-6-methylsulfanyl-4-trifluoromethyl-benzamide]",56.4 nM
6,"CCc1cc(C(F)(F)F)ccc1C(=O)N[C@H]1CCC[C@H]1NC1CCCC1 (single isomer, unassigned) [Example 92, (+)-N-(2-Cyclopentylamino-cyclopentyl)-2-ethyl-4-trifluoromethyl-benzamide]",95.4 nM
7,"CCc1cc(C(F)(F)F)ccc1C(=O)N[C@H]1CCC[C@H]1NC1CCCC1 (racemic) [Example 89, cis-N-(2-Cyclopentylamino-cyclopentyl)-2-ethyl-4-trifluoromethyl-benzamide]",79.4 nM
